US8541407B2 (ArQule, Inc., priority 2010, dated 2013)

These compounds were tested against AKT1 (Homo sapiens (Human), UniProt P31749) (assay: Inactive Akt Alpha Screen Assay). Conditions: non *labeled: Akt Alpha Screen assay; read-out: AKT1 biochemical assay, IC50.
Method in brief: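 AKT1 activated in situ by PDK1, MAPKAPK2, lipid vesicles and ATP, then phosphorylating biotinylated crosstide for 30 min at room temperature. Stopped with 10 mM EDTA; phosphopeptide detected by AlphaScreen using phospho-AKT substrate antibody (1:350), Protein A acceptor and streptavidin donor beads, 90 min dark, ex 640/em 570 nm.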

AKT1, sequence (P31749 whole entry): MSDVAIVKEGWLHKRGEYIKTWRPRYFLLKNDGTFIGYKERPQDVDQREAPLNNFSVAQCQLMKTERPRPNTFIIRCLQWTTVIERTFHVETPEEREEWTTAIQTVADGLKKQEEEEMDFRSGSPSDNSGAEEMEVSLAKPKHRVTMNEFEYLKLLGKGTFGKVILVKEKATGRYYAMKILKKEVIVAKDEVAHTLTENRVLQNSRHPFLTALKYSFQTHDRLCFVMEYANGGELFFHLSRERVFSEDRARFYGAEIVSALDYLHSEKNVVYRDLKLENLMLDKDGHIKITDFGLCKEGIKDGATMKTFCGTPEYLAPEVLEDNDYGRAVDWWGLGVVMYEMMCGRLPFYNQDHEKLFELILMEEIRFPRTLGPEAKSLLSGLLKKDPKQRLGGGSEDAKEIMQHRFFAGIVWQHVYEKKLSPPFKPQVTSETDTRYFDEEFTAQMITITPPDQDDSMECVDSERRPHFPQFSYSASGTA

Row | IC50 | SMILES
1 | 3000 nM | COc1cccc(S(=O)(=O)NC2CCN(Cc3ccc(-c4nnc5n4-c4cccnc4Nc4ccccc4-5)cc3)CC2)c1 [Example 150, N-(1-(4-(9H-benzo[f]pyrido[2,3-b][1,2,4]triazolo[4,3-d][1,4]diazepin-3-yl)benzyl)piperidin-4-yl)-3-methoxybenzenesulfonamide]
2 | 5000 nM | CC(=O)Nc1ccc(S(=O)(=O)NC2CCN(Cc3ccc(-c4nnc5n4-c4cccnc4Nc4ccccc4-5)cc3)CC2)cc1 [Example 151, N-(4-(N-(1-(4-(9H-benzo[f]pyrido[2,3-b][1,2,4]triazolo[4,3-d][1,4]diazepin-3-yl)benzyl)piperidin-4-yl)sulfamoyl)phenyl)acetamide]
3 | 1800 nM | O=S(=O)(Cc1ccccc1)NC1CCN(Cc2ccc(-c3nnc4n3-c3cccnc3Nc3ccccc3-4)cc2)CC1 [Example 152, N-(1-(4-(9H-benzo[f]pyrido[2,3-b][1,2,4]triazolo[4,3-d][1,4]diazepin-3-yl)benzyl)piperidin-4-yl)-1-phenylmethanesulfonamide]
4 | 5300 nM | Cc1nc(C)c(S(=O)(=O)NC2CCN(Cc3ccc(-c4nnc5n4-c4cccnc4Nc4ccccc4-5)cc3)CC2)s1 [Example 153, N-(1-(4-(9H-benzo[f]pyrido[2,3-b][1,2,4]triazolo[4,3-d][1,4]diazepin-3-yl)benzyl)piperidin-4-yl)-2,4-dimethylthiazole-5-sulfonamide]
5 | 6400 nM | CC(C)CS(=O)(=O)NC1CCN(Cc2ccc(-c3nnc4n3-c3cccnc3Nc3ccccc3-4)cc2)CC1 [Example 154, N-(1-(4-(9H-benzo[f]pyrido[2,3-b][1,2,4]triazolo[4,3-d][1,4]diazepin-3-yl)benzyl)piperidin-4-yl)-2-methylpropane-1-sulfonamide]
6 | 3400 nM | CC(=O)c1ccc(S(=O)(=O)NC2CCN(Cc3ccc(-c4nnc5n4-c4cccnc4Nc4ccccc4-5)cc3)CC2)cc1 [Example 155, N-(1-(4-(9H-benzo[f]pyrido[2,3-b][1,2,4]triazolo[4,3-d][1,4]diazepin-3-yl)benzyl)piperidin-4-yl)-4-acetylbenzenesulfonamide]
7 | 2700 nM | O=S(=O)(NC1CCN(Cc2ccc(-c3nnc4n3-c3cccnc3Nc3ccccc3-4)cc2)CC1)c1cccc(F)c1 [Example 157, N-(1-(4-(9H-benzo[f]pyrido[2,3-b][1,2,4]triazolo[4,3-d][1,4]diazepin-3-yl)benzyl)piperidin-4-yl)-3-fluorobenzenesulfonamide]
8 | 6900 nM | O=C(c1ccc2c(c1)OCO2)N1CCN(Cc2ccc(-c3nnc4n3-c3cccnc3Nc3ccccc3-4)cc2)CC1 [Example 158, (4-(4-(9H-benzo[f]pyrido[2,3-b][1,2,4]triazolo[4,3-d][1,4]diazepin-3-yl)benzyl)piperazin-1-yl)(benzo[d][1,3]dioxol-5-yl)methanone]
9 | 2000 nM | N#Cc1cccc(C(=O)N2CCN(Cc3ccc(-c4nnc5n4-c4cccnc4Nc4ccccc4-5)cc3)CC2)c1 [Example 159, 3-(4-(4-(9H-benzo[f]pyrido[2,3-b][1,2,4]triazolo[4,3-d][1,4]diazepin-3-yl)benzyl)piperazine-1-carbonyl)benzonitrile]
10 | 3000 nM | Cc1ccc(C(=O)N2CCN(Cc3ccc(-c4nnc5n4-c4cccnc4Nc4ccccc4-5)cc3)CC2)cc1 [Example 160, (4-(4-(9H-benzo[f]pyrido[2,3-b][1,2,4]triazolo[4,3-d][1,4]diazepin-3-yl)benzyl)piperazin-1-yl)(p-tolyl)methanone]
11 | 4200 nM | O=C(c1ccccn1)N1CCN(Cc2ccc(-c3nnc4n3-c3cccnc3Nc3ccccc3-4)cc2)CC1 [Example 161, (4-(4-(9H-benzo[f]pyrido[2,3-b][1,2,4]triazolo[4,3-d][1,4]diazepin-3-yl)benzyl)piperazin-1-yl)(pyridin-2-yl)methanone]
12 | 1800 nM | O=C(c1ccc(F)cc1)C1CCN(Cc2ccc(-c3nnc4n3-c3cccnc3Nc3ccccc3-4)cc2)CC1 [Example 164, (1-(4-(9H-benzo[f]pyrido[2,3-b][1,2,4]triazolo[4,3-d][1,4]diazepin-3-yl)benzyl)piperidin-4-yl)(4-fluorophenyl)methanone]
13 | 330 nM | O=C(Nc1ccc(F)cc1)NC1CCN(Cc2ccc(-c3nnc4n3-c3cccnc3Nc3ccccc3-4)cc2)CC1 [Example 165, 1-(1-(4-(9H-benzo[f]pyrido[2,3-b][1,2,4]triazolo[4,3-d][1,4]diazepin-3-yl)benzyl)piperidin-4-yl)-3-(4-fluorophenyl)urea]
14 | 720 nM | COc1ccc(C)cc1NC(=O)NC1CCN(Cc2ccc(-c3nnc4n3-c3cccnc3Nc3ccccc3-4)cc2)CC1 [Example 166, 1-(1-(4-(9H-benzo[f]pyrido[2,3-b][1,2,4]triazolo[4,3-d][1,4]diazepin-3-yl)benzyl)piperidin-4-yl)-3-(2-methoxy-5-methylphenyl)urea]
15 | 440 nM | O=C(Nc1ccccc1F)NC1CCN(Cc2ccc(-c3nnc4n3-c3cccnc3Nc3ccccc3-4)cc2)CC1 [Example 167, 1-(1-(4-(9H-benzo[f]pyrido[2,3-b][1,2,4]triazolo[4,3-d][1,4]diazepin-3-yl)benzyl)piperidin-4-yl)-3-(2-fluorophenyl)urea]
16 | 6000 nM | COc1ccc(CCNC(=O)NC2CCN(Cc3ccc(-c4nnc5n4-c4cccnc4Nc4ccccc4-5)cc3)CC2)cc1OC [Example 169, 1-(1-(4-(9H-benzo[f]pyrido[2,3-b][1,2,4]triazolo[4,3-d][1,4]diazepin-3-yl)benzyl)piperidin-4-yl)-3-(3,4-dimethoxyphenethyl)urea]
17 | 660 nM | Cc1cccc(NC(=O)NC2CCN(Cc3ccc(-c4nnc5n4-c4cccnc4Nc4ccccc4-5)cc3)CC2)c1 [Example 170, 1-(1-(4-(9H-benzo[f]pyrido[2,3-b][1,2,4]triazolo[4,3-d][1,4]diazepin-3-yl)benzyl)piperidin-4-yl)-3-(m-tolyl)urea]
18 | 780 nM | COc1cccc(CNC(=O)NC2CCN(Cc3ccc(-c4nnc5n4-c4cccnc4Nc4ccccc4-5)cc3)CC2)c1 [Example 171, 1-(1-(4-(9H-benzo[f]pyrido[2,3-b][1,2,4]triazolo[4,3-d][1,4]diazepin-3-yl)benzyl)piperidin-4-yl)-3-(3-methoxybenzyl)urea]
19 | 1200 nM | COc1ccc(NC(=O)NC2CCN(Cc3ccc(-c4nnc5n4-c4cccnc4Nc4ccccc4-5)cc3)CC2)cc1Cl [Example 172, 1-(1-(4-(9H-benzo[f]pyrido[2,3-b][1,2,4]triazolo[4,3-d][1,4]diazepin-3-yl)benzyl)piperidin-4-yl)-3-(3-chloro-4-methoxyphenyl)urea]
20 | 910 nM | O=C(NCc1ccccc1Cl)NC1CCN(Cc2ccc(-c3nnc4n3-c3cccnc3Nc3ccccc3-4)cc2)CC1 [Example 173, 1-(1-(4-(9H-benzo[f]pyrido[2,3-b][1,2,4]triazolo[4,3-d][1,4]diazepin-3-yl)benzyl)piperidin-4-yl)-3-(2-chlorobenzyl)urea]
21 | 530 nM | O=C(Nc1ccc2c(c1)CCO2)NC1CCN(Cc2ccc(-c3nnc4n3-c3cccnc3Nc3ccccc3-4)cc2)CC1 [Example 175, 1-(1-(4-(9H-benzo[f]pyrido[2,3-b][1,2,4]triazolo[4,3-d][1,4]diazepin-3-yl)benzyl)piperidin-4-yl)-3-(2,3-dihydrobenzofuran-5-yl)urea]
22 | 1200 nM | O=C(Nc1cccc(Cl)c1)NC1CCN(Cc2ccc(-c3nnc4n3-c3cccnc3Nc3ccccc3-4)cc2)CC1 [Example 176, 1-(1-(4-(9H-benzo[f]pyrido[2,3-b][1,2,4]triazolo[4,3-d][1,4]diazepin-3-yl)benzyl)piperidin-4-yl)-3-(3-chlorophenyl)urea]
23 | 770 nM | CCCc1ccccc1NC(=O)NC1CCN(Cc2ccc(-c3nnc4n3-c3cccnc3Nc3ccccc3-4)cc2)CC1 [Example 177, 1-(1-(4-(9H-benzo[f]pyrido[2,3-b][1,2,4]triazolo[4,3-d][1,4]diazepin-3-yl)benzyl)piperidin-4-yl)-3-(2-propylphenyl)urea]
24 | 790 nM | O=C(Nc1cccc(F)c1)NC1CCN(Cc2ccc(-c3nnc4n3-c3cccnc3Nc3ccccc3-4)cc2)CC1 [Example 178, 1-(1-(4-(9H-benzo[f]pyrido[2,3-b][1,2,4]triazolo[4,3-d][1,4]diazepin-3-yl)benzyl)piperidin-4-yl)-3-(3-fluorophenyl)urea]
25 | 700 nM | Cc1ccccc1NC(=O)NC1CCN(Cc2ccc(-c3nnc4n3-c3cccnc3Nc3ccccc3-4)cc2)CC1 [Example 179, 1-(1-(4-(9H-benzo[f]pyrido[2,3-b][1,2,4]triazolo[4,3-d][1,4]diazepin-3-yl)benzyl)piperidin-4-yl)-3-(o-tolyl)urea]
26 | 940 nM | O=C(NCCc1ccc(Cl)cc1)NC1CCN(Cc2ccc(-c3nnc4n3-c3cccnc3Nc3ccccc3-4)cc2)CC1 [Example 180, 1-(1-(4-(9H-benzo[f]pyrido[2,3-b][1,2,4]triazolo[4,3-d][1,4]diazepin-3-yl)benzyl)piperidin-4-yl)-3-(4-chlorophenethyl)urea]
27 | 1200 nM | Cc1ccccc1CNC(=O)NC1CCN(Cc2ccc(-c3nnc4n3-c3cccnc3Nc3ccccc3-4)cc2)CC1 [Example 181, 1-(1-(4-(9H-benzo[f]pyrido[2,3-b][1,2,4]triazolo[4,3-d][1,4]diazepin-3-yl)benzyl)piperidin-4-yl)-3-(2-methylbenzyl)urea]

Row | SMILES | IC50
28 | O=C1NCN(c2ccccc2)C12CCN(Cc1ccc(-c3nnc4n3-c3cccnc3Nc3ccccc3-4)cc1)CC2 [Example 162, 8-(4-(9H-benzo[f]pyrido[2,3-b][1,2,4]triazolo[4,3-d][1,4]diazepin-3-yl)benzyl)-1-phenyl-1,3,8-triazaspiro[4.5]decan-4-one] | 950 nM
29 | N#CC1(c2ccccc2)CCN(Cc2ccc(-c3nnc4n3-c3cccnc3Nc3ccccc3-4)cc2)CC1 [Example 163, 1-(4-(9H-benzo[f]pyrido[2,3-b][1,2,4]triazolo[4,3-d][1,4]diazepin-3-yl)benzyl)-4-phenylpiperidine-4-carbonitrile] | 7300 nM
